Reference: patent publication US5663152A, “Potentiators for aminoglycosides” (Asahi Kasei Kogyo Kabushiki Kaisha, priority 1995, dated 1997)
Converted amounts (≈) assume the structure as drawn. Read-outs that look alike come from different tables or passages of the source.

Tests used:
[1] = test system: Pseudomonas aeruginosa (ATCC 10145); assay: Minimum biocidal concentration, Pseudomonas aeruginosa (ATCC 10145); assay type: cell-based; details: for MBC: Pseudomonas aeruginosa, ATCC10145, read-out: MBC Alone
Excerpt: (§1) Microorganism strains were supplied by the ATCC. Staphylococcus aureus is a clinically significant member of the gram-positive group of bacterial pathogens. It gives rise to serious infections, and may produce bacteremia, endocarditis, and meningitis. Methicillin-resistant strains of Staphylococcus aureus were chosen for evaluation because they present a significant medical problem, in view of the fact that methicillin is the drug of choice for treatment of S. aureus infection in the common penicillin-resistant strains.
(§2) Pseudomonas aeruginosa was also chosen for evaluation. P. aerugtnosa is a gram-negative pathogenic bacillus which may cause urinary tract infections or pneumonia.
(§3) After determining the MIC, 0.1 ml of a ten-fold dilution from each tube showing no turbidity was plated onto chemical free nutrient agar plates. After 24 hours of incubation, the colonies were counted. The MBC was the lowest concentration of antibacterial compound that decreased the initial inoculum population by >99.9 percent. The initial population for E. coli. was 1×10^7 -6×10^7 colony forming units (CFU) per ml; for P. aeruginosa was 1×10^6 -5×10^6 CFU per ml; and for methicillin-resistant Staphylococcus aureus (MRSA) was 2×10^6 -7×10^6 CFU per ml.

[2] = test system: Escherichia coli (ATCC 10536); assay: Minimum inhibitory concentration by broth dilution, Escherichia coli (ATCC 10536); assay type: cell-based; details: for MIC: Escherichia coli, ATCC10536, 48 h, read-out: MIC Alone
Excerpt: as §1
(§4) Escherichia coli is also a gram-negative pathogenic bacillus which may cause enteritis, peritonitis, or cystitis.
(§5) The MICs were determined by the broth dilution method (Kubo et al. J. Agric. Food Chem. 1992, 40, 245-248). Test compounds were dissolved in Di-Methyl Formamide("DMF") to make stock solution at concentrations of 80, 40, 20, or 10 mg/ml depending upon the potency and solubility. An aliquot of 0.01 ml of the stock solution was added to a tube containing 0.99 ml of media to get the initial concentration of testing solution. Serial two-fold dilutions were made by mixing 0.5 ml of testing solution with 0.5 ml of blank medium. A 0.5 ml aliquot of diluted inoculum containing an appropriate concentration of the test microorganism (1:100 dilution of the initial inoculum) was then added into each tube containing 0.5 ml serial dilutions of the test compound. After incubating for 2 days at 37° C., the tube was evaluated for visible growth. The MIC was determined as the lowest concentration of a compound which prevented visible microorganism growth. A culture growth control without compound (solvent only) and several culture sensitive reference agents were used as positive controls. The assays were performed in duplicate.

[3] = occurring in foods, routinely consumed in the diet; in words; cited from earlier work
[4] = test system: Pseudomonas aeruginosa (ATCC 10145); assay: Minimum inhibitory concentration by broth dilution, Pseudomonas aeruginosa (ATCC 10145); assay type: cell-based; details: for MIC: Pseudomonas aeruginosa, ATCC10145, 48 h, read-out: MIC Alone
Excerpt: as §1, §2, §5

[5] = test system: Methicillin-resistant Staphylococcus aureus (ATCC 33591); assay: Minimum biocidal concentration, MRSA (ATCC 33591); assay type: cell-based; details: substance alone, >99.9 percent decrease of inoculum; for MBC: Staphylococcus aureus
Excerpt: as §1, §3

[6] = test system: Escherichia coli (ATCC 10536); assay: Minimum biocidal concentration, Escherichia coli (ATCC 10536); assay type: cell-based; details: for MBC: Escherichia coli
Excerpt: as §1, §4, §3

[7] = test system: Methicillin-resistant Staphylococcus aureus (ATCC 33591); assay: Minimum inhibitory concentration by broth dilution, MRSA (ATCC 33591); assay type: cell-based; details: substance alone, 2 days at 37° C.; for MIC: Staphylococcus aureus, 48 h
Excerpt: as §1, §5

[8] = in words; cited from earlier work
[9] = test system: aminoglycoside-inactivating enzymes; details: in words; cited from earlier work
[10] = test system: gram-negative and gram-positive organisms; details: in words, cited from earlier work
[11] = read-out: MBC Alone, MRSA ATCC 33591
[12] = read-out: MIC Alone, MRSA ATCC 33591
[13] = MRSA ATCC 33591, read-out: MBC Alone
[14] = MRSA ATCC 33591, read-out: MIC Alone
[15] = E. coli ATCC 10536, substance alone, 2 days at 37° C.

Row | Compound | MBC [1] | MIC [2] | toxicity of potentiators [3] | MIC [4] | MBC Alone ([5]; MRSA ATCC 33591) | MBC [5, 11] | MBC ([6]; ATCC10536, read-out: MBC Alone) | MIC Alone ([7]; MRSA ATCC 33591) | MIC [7, 12] | side effects [8] | MBC [5, 13] | MIC [7, 14] | antibacterial activity in vitro [10] | also measured
1 | CCCC=CC=O [2-Hexenal, 2-hexenal] | 200 µg/mL (≈ 2.04 mM) | 200 µg/mL (≈ 2.04 mM) | routinely consumed in the diet without apparent harm | 200 µg/mL (≈ 2.04 mM) | 400 µg/mL (≈ 4.08 mM) | 800 µg/mL (≈ 8.15 mM) | 200 µg/mL (≈ 2.04 mM) | 200 µg/mL (≈ 2.04 mM) | 400 µg/mL (≈ 4.08 mM) |  |  |  |  | 
2 | NCC[C@H](O)C(=O)N[C@@H]1C[C@H](N)[C@@H](O[C@H]2O[C@H](CN)[C@@H](O)[C@H](O)[C@H]2O)[C@H](O)[C@H]1O[C@H]1O[C@H](CO)[C@@H](O)[C@H](N)[C@H]1O [Amikacin] |  |  |  |  |  |  |  |  |  | strong side effects, such as nephrotoxicity, ototoxicity, or neuromuscular blockade | 200 µg/mL (≈ 0.342 mM) | 200 µg/mL (≈ 0.342 mM) | broad range of activity against gram-negative and gram-positive organisms | degradation by aminoglycoside-inactivating enzymes [9]: resists degradation by most aminoglycoside-inactivating enzymes
3 | NC[C@H]1O[C@H](O[C@H]2[C@H](O)[C@@H](O[C@H]3O[C@H](CO)[C@@H](O)[C@H](N)[C@H]3O)[C@H](N)C[C@@H]2N)[C@H](N)C[C@@H]1O [Tobramycin] |  |  |  |  |  |  |  |  |  | strong side effects, such as nephrotoxicity, ototoxicity, or neuromuscular blockade | 1600 µg/mL (≈ 3.42 mM) | 800 µg/mL (≈ 1.71 mM) | broad range of activity against gram-negative and gram-positive organisms | mode of action ([10]; in vitro tests): bactericidal and that it acts by interfering with protein synthesis in bacterial cells
4 | CC=Cc1ccc(OC)cc1 [Anethole, anethole] |  |  | routinely consumed in the diet without apparent harm |  |  |  |  |  |  |  | > 1600 µg/mL | > 1600 µg/mL |  | MIC [2, 15]: 400 µg/mL (≈ 2.7 mM); MBC ([6]; ATCC10536, E. coli ATCC 10536, substance alone, >99.9 percent decrease of inoculum, read-out: MBC Alone): 800 µg/mL (≈ 5.4 mM)
5 | Gentamicin [reference compound] |  |  |  |  | 1.56 µg/mL |  |  | 1.56 µg/mL |  | strong side effects, such as nephrotoxicity, ototoxicity, or neuromuscular blockade |  |  |  | MBC Alone ([1]; P. aeruginosa ATCC 10145, substance alone, >99.9 percent decrease of inoculum): 0.78 µg/mL; MIC Alone [2, 15]: 0.78 µg/mL; MIC Alone ([4]; P. aeruginosa ATCC 10145, substance alone, 2 days at 37° C.): 0.39 µg/mL; MBC Alone ([6]; E. coli ATCC 10536, substance alone, >99.9 percent decrease of inoculum): 0.78 µg/mL
6 | c1ccc2[nH]ccc2c1 [Indole, indole] | 800 µg/mL (≈ 6.83 mM) | 800 µg/mL (≈ 6.83 mM) | routinely consumed in the diet without apparent harm | 400 µg/mL (≈ 3.41 mM) |  | 1600 µg/mL (≈ 13.7 mM) | 800 µg/mL (≈ 6.83 mM) |  | 800 µg/mL (≈ 6.83 mM) |  |  |  |  | 
